What was measured:
HUVEC = assay: Leukocyte/EC adhesion assay; format: cell-based, human; details: bFGF 10 ng/ml + PF4 100 μg/ml
Procedure: Functional impact for the observed phenomena was provided by leukocyte/EC adhesion assays as described earlier (Griffioen et al. Cancer Res. 56:1111–1117, 1996). […] TNF mediated upregulation of adhesion to bFGF preincubated HUVEC in the presence of PF4 was similar to the adhesion to TNF treated control cells. PHA-activated peripheral blood T lymphocyte were adhered for 1 hour at 37° C. to TNF-α (4 ng/ml), bFGF (10 ng/ml)+PF4 (100 μg/ml) treated, or control (HUVEC). Non-adhering cells were removed and adhered cells were enumerated by an inverted microscope. Values of one representative experiment out of three are expressed as numbers of adhered cells per high power field. Statistical significance is determined by the Student's t-test.

ICAM-1 = ICAM-1 expression on endothelial cells (immunofluorescence, FACScan); format: cell-based, human
Procedure: In a first series of experiments, PF4 and βpep peptides were tested for their ability to prevent bFGF (fibroblast growth factor) mediated downregulation of ICAM-1. […] Simultaneously 100 μg/ml of each PF4, βpep-14, βpep-16, or medium was added. Mean ICAM-1 fluorescence intensity values were determined.
Since the in vivo situation of tumor associated EC involves the low expression or even absence of ICAM-1, the next set of experiments aimed to study the ability to reinduce ICAM-I expression after bFBF preincubation. […] In these experiments, HUVEC were pretreated for 3 days with bFGF, subsequently PF4 was added for 3 days and, where indicated in the last 16 hours of culture 4 ng/ml TNFα was added. Human umbilical vein derived endothelial cells (HUVEC) were harvested from normal human umbilical cords by perfusion with 0.125% trypsin/EDTA as described previously. Cells were cultured in fibronectin (FN) coated tissue culture flasks in culture medium (RPMI-1640 with 20% human serum (HS), supplemented with 2 mM glutamine and 100 U/ml penicillin and 0.1 mg/ml streptomycin). Immunofluorescence using indirect PE-conjugated reagents required three separate incubations. 1×10^5 EC were fixed for 1 hour in 1% paraformaldehyde, resuspended in 20 μl appropriately diluted Mab and incubated for 1 hour on ice. Subsequently, cells were washed two times in PBS/BSA (0.1%) and incubated for another 30 minutes with biotinylated rabbit-anti-mouse Ig (Dako, Glostrup, Denmark). After another 2 washings, cells were incubated with streptavidin-phycoerythrin conjugate (Dako). Stained cells were analyzed on a FACScan flowcytometer. Data analysis was performed using PCLysys software (Becton Dickinson, Mountain View, Calif.). Statistical significance of observed differences was determined using the Student's t-test.
The energy of EC to stimulation with inflammatory cytokines was the subject of a next series of experiments. For these experiments, HUVEC (human vascular endothelial cells) were pretreated with 10 ng/ml bFGF for 3 days. Subsequently, cells are subcultured for 3 days with […] in the presence of PF4. For the last 16 hours of the culture 4 ng/ml TNFα was added to induce upregulation of ICAM-1. […] The regulation of ICAM-1 at the protein level was confirmed in Northern blot analysis for detection of ICAM-1 message. In these experiments, HUVEC were cultured for 3 days with bFGF and treated for the last 4 and 24 hours with PF4 (100 μg/ml). TNFα was added 2 hours before isolation of RNA. RNA from a subconfluent EC cultures (75 cm^2 Petri-dishes) incubated with bFGF for different time-points was isolated using an RNA-zol kit (Campro Scientific, Houston, Tex.). Total RNA (10 μg) for each sample was separated in a 0.8% formaldehyde-denaturing gel, transferred to nitrocellulose (Hybond N+, Amersham International, Amersham, UK) and hybridized to a ^32P-labelled 1.9 Kb c-DNA probe, containing the functional sequence of the human ICAM-1 gene (a gift from Dr. B. Seed). Membranes were washed at a high stringency in 0.2×SSC, 0.1% SDS at 50° C. for 1 hour. Filters were exposed to X-ray films (Kodak X-omat, Eastman Kodak Company, Rochester, N.Y.) using an intensifying screen at −80° C. for not less than 12 hr. Autoradiograms were subjected to scanning using a laser densitometer (Model GS670, Bio-Rad, Hercules, Calif.) and data were analysed with the Molecular Analyst PC™ software. The intensity of the major ICAM-1 mRNA transcript was normalized with respect to actin mRNA expression used as a control.

[1] = system: endotoxin from E. coli 055:B5; assay: Limulus amoebocyte lysate assay (E-TOXATE), endotoxin neutralization; format: biochemical
Procedure, shortened: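 Peptide preincubated with LPS 5 min at room temperature in 1:2 pyrogen-free saline (pH 6.4), then amoebocyte lysate added (E-TOXATE kit). Neutralization of endotoxin activity scored by Limulus lysate reaction; BG38L served as positive control.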

platelet factor 4 [PF4]
bFGF mediated inhibition of leukocyte adhesion to cultured HUVEC (in words) (HUVEC): completely abolished | bFGF mediated downregulation of ICAM-1 (in words) (ICAM-1; 10 ng/ml bFGF for 3 days, 100 μg/ml added simultaneously): did not result in the loss of ICAM-1 expression | expression of ICAM-1 (in words) (ICAM-1; 100 μg/ml, without bFGF): enhanced the expression of ICAM-1 | decreased inflammatory response (TNFα upregulation of ICAM-1) of angiogenic stimulated EC (in words) (ICAM-1; HUVEC 3 days 10 ng/ml bFGF, then 3 days with bFGF and test agent, 4 ng/ml TNFα last 16 hours): overcome | reinduction of ICAM-1 expression after bFGF preincubation (in words) (ICAM-1; HUVEC pretreated 3 days with bFGF, then 100 μg/ml for 3 days in the presence of bFGF): reinduction of ICAM-1 | endotoxin neutralizing activity (in words) [1]: no endotoxin neutralizing activity | Endotoxin Neutralizing Activity, % neutralization ([1]; 5.0 × 10^−5 M peptide, 0.02 U (0.2 pg) endotoxin from E. coli 055:B5, Table 3): 0% | Endotoxin Neutralization, % neutralization ([1]; 5.0 × 10^−6 M Peptide, 0.02 U (0.2 pg) endotoxin from E. coli 055:B5, Table 4): 0% | Endotoxin Neutralization, % at the effective dose ([1]; Table 3, at the ED printed in the same cell): 23% | Endotoxin neutralization, ED, Effective M dose ([1]; Table 3, dose at which the % in brackets was found): 50 µM | Endotoxin Neutralization, % at the effective dose ([1]; Table 4, at the Ed): 0% | Endotoxin Neutralization, Ed, Effective M dose ([1]; Table 4, dose at which the % in brackets was found): 50 µM

Source: patent US7030087B2, “Synthetic approach to designed chemical structures” (priority 1996, dated 2006)
